Data from ChEMBL document CHEMBL4385651, “Identification and characterization of the first fragment hits for SETDB1 Tudor domain” (Bioorg Med Chem, 2019).
Calls of active or inactive are those of the source. The rule behind the calls is not given here. Where a SMILES comes first, the peptide text is derived from it. [ ]: non-standard residue; d: D form. The star is where a group is joined. X1 = CC(=O)NCc1ccccc1-n1c(C)nnc1CN*; Lys(Me2) = CN(C)CCCC[C@H](N)C(=O)O

Legend:
[1] = molecular target: T1, Histone-lysine N-methyltransferase SETDB1 (Homo sapiens, UniProt Q15047); test: Binding affinity to N-terminally biotinylated human SETDB1 Tudor domain (197 to 403 residues) expressed in Escherichia coli BL21(DE3)-pRARE2 cells by SPR analysis
[2] = molecular target: T1, Histone-lysine N-methyltransferase SETDB1; test: Binding affinity to N-terminal His6-tagged human SETDB1 Tudor domain (197 to 403 residues) expressed in Escherichia coli BL21(DE3)-pRARE2 cells assessed as induction of HSQC shift at 5 mM by 1H-15 N HSQC-TROSY NMR spectroscopy
[3] = molecular target: T1, Histone-lysine N-methyltransferase SETDB1; test: Binding affinity to N-terminal His6-tagged human SETDB1 Tudor domain (197 to 403 residues) expressed in Escherichia coli BL21(DE3)-pRARE2 cells by ITC assay
[4] = molecular target: T1, Histone-lysine N-methyltransferase SETDB1; test: Binding affinity to N-terminal His6-tagged human SETDB1 Tudor domain (197 to 403 residues) expressed in Escherichia coli BL21(DE3)-pRARE2 cells assessed as induction of HSQC shift at 10 mM by 1H-15 N HSQC-TROSY NMR spectroscopy

Compound | Kd [1] [mM] | Activity [2] | Kd [3] [mM] | Activity [4] [ppm]
CC(=O)NCc1ccccc1-n1c(C)nnc1CNC(=O)CNC(=O)[C@@H](NC(=O)[C@H](CO)NC(=O)[C@@H](N)CCCCN(C)C)[C@@H](C)O (H-[Lys(Me2)]STG-X1) | 1.27 | Active |  | 
CC(=O)NCc1cc(Br)ccc1-n1c(C)nnc1C | 2.7 |  |  | 
CC(=O)NCc1cc(C)ccc1-n1c(C)nnc1C | 7.7 |  |  | 
CNC(=O)NCc1ccccc1-n1c(C)nnc1C |  | inactive |  | 
Cc1nnc(C)n1-c1ccccc1CNS(C)(=O)=O | 4 to 17 | Active | 4 to 17 | 
Cc1nnc(C)n1-c1ccccc1C(=O)O |  | inactive |  | 
CC(=O)NCc1cc(C#N)ccc1-n1c(C)nnc1C | 10 |  |  | 
CC(=O)NCc1ccccc1-n1c(C)nnc1C | 3.5 | Active | 3.5 | 
Cc1nnc2n1-c1ccccc1COC2 |  | Active |  | 
CC(C)(C)NC(=O)[C@@H]1Cc2ccccc2CN1 |  |  |  | > 0.2
CC(=O)NCc1cc(Cl)ccc1-n1c(C)nnc1C | 2.5 |  |  | 
